Results taken from ChEMBL document CHEMBL1201862, “PubChem BioAssay data set” (2004).
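How tested: cells in 96-well plates exposed to compound for 48 hours at five concentrations. Here, GI50 denotes the concentration required for 50% inhibition of growth.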 Calls of active or inactive are those of the source. Rule as the data show it: active = GI50 up to about 1.1 µM and inactive = higher.

What was measured:
Assay in all cases: NCI tumour cell line growth inhibition, 48 h
EKVX = test system: EKVX
OVCAR-3 = test system: OVCAR-3
HL-60 = test system: HL-60
NCI-H460 = test system: NCI-H460
HOP-62 = test system: HOP-62
SK-MEL-2 = test system: SK-MEL-2
CAKI-1 = test system: CAKI-1
CCRF-CEM = test system: CCRF-CEM
RPMI-8226 = test system: RPMI-8226
SN12C = test system: SN12C
K562 = test system: K562
SW-620 = test system: SW-620
BT-549 = test system: BT-549
T47D = test system: T47D
SK-OV-3 = test system: SK-OV-3
HT-29 = test system: HT-29
MDA-MB-435 = test system: MDA-MB-435
SNB-19 = test system: SNB-19
A498 = test system: A498

SMILES | GI50 (EKVX) | GI50 (OVCAR-3) | GI50 (HL-60) | GI50 (NCI-H460) | GI50 (HOP-62) | GI50 (SK-MEL-2) | GI50 (CAKI-1) | GI50 (CCRF-CEM) | GI50 (RPMI-8226) | GI50 (SN12C) | GI50 (K562) | GI50 (SW-620) | GI50 (BT-549) | GI50 (T47D) | GI50 (SK-OV-3) | GI50 (HT-29) | GI50 (MDA-MB-435) | GI50 (SNB-19) | GI50 (A498)
CCOC(=O)c1c2ccccc2n2c(N)c(C(N)=O)nnc12 | 18 µM (inactive) | > 100 µM (inactive) | > 100 µM (inactive) | 50.4 µM (inactive) | 17.3 µM (inactive) | 20.5 µM (inactive) | 32.8 µM (inactive) | > 100 µM (inactive) | > 100 µM (inactive) | > 100 µM (inactive) | > 100 µM (inactive) | > 100 µM (inactive) | 22.1 µM (inactive) | 43.1 µM (inactive) | 13.9 µM (inactive) | > 100 µM (inactive) | > 100 µM (inactive) | 19.3 µM (inactive) | 21 µM (inactive)
CCCCCCCCCCCCCCCCCCOc1ccc(/C=C/C2=[N+](CCCl)CCO2)cc1 | > 100 µM (inactive) | > 100 µM (inactive) | 53.3 µM (inactive) | > 100 µM (inactive) | > 100 µM (inactive) | > 100 µM (inactive) | > 100 µM (inactive) | > 100 µM (inactive) | > 100 µM (inactive) | > 100 µM (inactive) | > 100 µM (inactive) | > 100 µM (inactive) | > 100 µM (inactive) | > 100 µM (inactive) | > 100 µM (inactive) | > 100 µM (inactive) | > 100 µM (inactive) | > 100 µM (inactive) | > 100 µM (inactive)
CCCCN(CCCC)CC(=O)c1ccc2cc(Cl)c3ccccc3c2c1 | 67.3 µM (inactive) | 51.4 µM (inactive) | 24.1 µM (inactive) | 18.3 µM (inactive) | 50 µM (inactive) | 25.5 µM (inactive) | 29.5 µM (inactive) | > 100 µM (inactive) | 7.98 µM (inactive) | 50.7 µM (inactive) | 24.9 µM (inactive) | 29.8 µM (inactive) | 19.1 µM (inactive) | 17.7 µM (inactive) | 31 µM (inactive) | 17.4 µM (inactive) | 30.4 µM (inactive) | 33.7 µM (inactive) | 20.7 µM (inactive)
CN1CN(c2ccccc2)C2(CCNCC2)C1=O | > 100 µM (inactive) | > 100 µM (inactive) | > 100 µM (inactive) | > 100 µM (inactive) | > 100 µM (inactive) | > 100 µM (inactive) | > 100 µM (inactive) | > 100 µM (inactive) | > 100 µM (inactive) | > 100 µM (inactive) | > 100 µM (inactive) | > 100 µM (inactive) | > 100 µM (inactive) | > 100 µM (inactive) | > 100 µM (inactive) | > 100 µM (inactive) | > 100 µM (inactive) | > 100 µM (inactive) | > 100 µM (inactive)
O=c1c2c(no[n+]2[O-])c2ccccc2n1-c1ccccc1 | 12.6 µM (inactive) | 12.8 µM (inactive) | 2.12 µM (inactive) | 8.2 µM (inactive) | 15.1 µM (inactive) | 11.8 µM (inactive) | 2.65 µM (inactive) | 2.25 µM (inactive) | 5.87 µM (inactive) | 6.01 µM (inactive) | 2.74 µM (inactive) | 2.65 µM (inactive) | 3.03 µM (inactive) | 12.9 µM (inactive) | 14.6 µM (inactive) | 4.89 µM (inactive) | 5.43 µM (inactive) | 14.5 µM (inactive) | 15.6 µM (inactive)
COc1cc(C2c3c(ccc4ccccc34)C(=O)C3CCC(=O)N32)cc(OC)c1OC (centres undefined) | > 50 µM (inactive) | > 50 µM (inactive) | > 50 µM (inactive) | > 50 µM (inactive) | > 50 µM (inactive) | > 50 µM (inactive) | > 50 µM (inactive) | > 50 µM (inactive) | 46.8 µM (inactive) | > 50 µM (inactive) | > 50 µM (inactive) | > 50 µM (inactive) | > 50 µM (inactive) | > 50 µM (inactive) | > 50 µM (inactive) | > 50 µM (inactive) | > 50 µM (inactive) | > 50 µM (inactive) | > 50 µM (inactive)
COc1cc(CCNC2=CC(=O)c3nc[nH]c3C2=O)ccc1O | 21.2 µM (inactive) | 3.16 µM (inactive) | 25.6 µM (inactive) | 25.7 µM (inactive) | 40.1 µM (inactive) | 21.4 µM (inactive) | 48.3 µM (inactive) | 33.3 µM (inactive) | 29.4 µM (inactive) | 19.1 µM (inactive) | 34.1 µM (inactive) | 23.8 µM (inactive) | 24.7 µM (inactive) | 20.7 µM (inactive) | 34.4 µM (inactive) | 23.6 µM (inactive) | 17.6 µM (inactive) | 18.2 µM (inactive) | 34.4 µM (inactive)
C/C(=N/NC(=S)N1CCCCC1)c1ccccc1O | 29.9 µM (inactive) | 16.4 µM (inactive) | > 31.6 µM (inactive) | 22.6 µM (inactive) | > 100 µM (inactive) | > 31.6 µM (inactive) | > 31.6 µM (inactive) | 21.7 µM (inactive) | 13.6 µM (inactive) | > 31.6 µM (inactive) | 22.8 µM (inactive) | > 31.6 µM (inactive) | > 100 µM (inactive) | 8.26 µM (inactive) | > 31.6 µM (inactive) | 23.1 µM (inactive) | > 31.6 µM (inactive) | > 31.6 µM (inactive) | > 100 µM (inactive)
CCOP(=O)(OCC)C(c1ccccc1)N(C(=O)NC(F)(F)F)c1ccc(C)cc1 (centres undefined) | > 100 µM (inactive) | > 100 µM (inactive) | > 100 µM (inactive) | > 100 µM (inactive) | > 100 µM (inactive) | > 100 µM (inactive) | > 100 µM (inactive) | > 100 µM (inactive) | > 100 µM (inactive) | > 100 µM (inactive) | > 100 µM (inactive) | > 100 µM (inactive) | > 100 µM (inactive) | 83.4 µM (inactive) | > 100 µM (inactive) | > 100 µM (inactive) | > 100 µM (inactive) | > 100 µM (inactive) | > 100 µM (inactive)
Cc1ccc(/C=C2\CCCCCC2=O)cc1 | > 100 µM (inactive) | > 100 µM (inactive) | < 0.01 µM (active) | > 100 µM (inactive) | > 100 µM (inactive) | > 100 µM (inactive) | > 100 µM (inactive) | 41.3 µM (inactive) | > 100 µM (inactive) | > 100 µM (inactive) | > 100 µM (inactive) | > 100 µM (inactive) | > 100 µM (inactive) | > 100 µM (inactive) | > 100 µM (inactive) | > 100 µM (inactive) | > 100 µM (inactive) | > 100 µM (inactive) | > 100 µM (inactive)
NC(=S)N/N=C/c1ncccc1N [TRIAPINE] | 7.55 µM (inactive) | 2.25 µM (inactive) | 1.03 µM (active) | 1.68 µM (inactive) | 1.19 µM (inactive) | > 10 µM (inactive) | 0.521 µM (active) | 0.466 µM (active) | 0.792 µM (active) | 1.41 µM (inactive) | 3.13 µM (inactive) | 3.72 µM (inactive) | 2.37 µM (inactive) | 4.39 µM (inactive) | > 8.55 µM (inactive) | 1.93 µM (inactive) | 1.71 µM (inactive) | 9.89 µM (inactive) | 0.615 µM (active)
